Test system: whole blood from TB-reactor and BCG-vaccinated animals (IFN-γ response)
Assay type: cell-based, cattle

| Substance | recognition in TB-reactor animals not responding to peptides #42 or #55 | also measured |
| --- | --- | --- |
| RDVLAAGDFWGGAGSVACQE [peptide #42] |  | responder frequency, TB-reactor animals: 50% |
| RNIVNMLHGVRDGLVRDANN [compound 20] | recognised in TB-reactor animals that failed to respond to peptides #42 or #55 |  |
| EAEHQAIIRDVLTASDFWGG [compound 29] | recognised in TB-reactor animals that failed to respond to peptides #42 or #55 |  |
| QANLGEAAGTYVAADAAAAS [peptide #55] |  | responder frequency, TB-reactor animals: 36% |
| Staphylococcal enterotoxin B [SEB, reference compound] |  | IFN-γ response in TB-reactor and BCG-vaccinated animals: all TB-reactor and BCG-vaccinated animals responded |
| LGRNFQVIYEQANAHGQKVQ [peptide #33] | recognised in TB-reactor animals that failed to respond to peptides #42 or #55 |  |
| SAELPDWLAANRGLAPGGHA [peptide #64] | recognised in TB-reactor animals that failed to respond to peptides #42 or #55 | immunogenicity in BCG-vaccinated animals on re-screen of Sec#1 components: immunogenic in some BCG-vaccinated animals |

— patent US20170097349A1 (priority 2010, published 2017)
